Assays:
11β-HSD1 [1] = biological target: T1, 11β-HSD1 (Homo sapiens, UniProt P28845); assay: Biological Test Example 4: microsomal 11β-HSD1 in the presence of 50% human plasma; conditions: for Shift: IC50 in Test Example 4 divided by IC50 in Test Example 1
11β-HSD1 [2] = biological target: T1, 11β-HSD1; assay: biochemical; conditions: for inhibition at 0.1 µM: read-out: Average % inhibition at 100 nM
[3] = Biological Test Example 1 IC50 (nM)
[4] = IC50 Range, Biological Test Example 1

T1 sequence (P28845 whole entry): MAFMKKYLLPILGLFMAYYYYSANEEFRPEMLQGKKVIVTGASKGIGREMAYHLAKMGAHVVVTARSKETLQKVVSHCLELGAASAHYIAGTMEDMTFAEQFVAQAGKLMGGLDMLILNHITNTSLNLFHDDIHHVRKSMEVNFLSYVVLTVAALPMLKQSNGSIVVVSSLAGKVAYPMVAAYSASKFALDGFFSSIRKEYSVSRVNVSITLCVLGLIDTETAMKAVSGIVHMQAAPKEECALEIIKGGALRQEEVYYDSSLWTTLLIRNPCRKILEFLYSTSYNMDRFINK

SMILES | IC50 (11β-HSD1 [1]) [nM] | IC50 (11β-HSD1 [2]; [3]) [nM] | IC50 (11β-HSD1 [2]; [4]) [nM] | inhibition at 0.1 µM (11β-HSD1 [2]) [%] | Shift (11β-HSD1 [1])
C[C@@H](c1ccc(-c2ccc(C(C)(C)C)nn2)cc1)N1CC[C@](CC(C)(C)O)(c2ccccc2)OC1=O [EXAMPLE 6, (S)-3-((S)-1-(4-(6-tert-butylpyridazin-3-yl)phenyl)ethyl)-6-(2-hydroxy-2-methylpropyl)-6-phenyl-1,3-oxazinan-2-one] | 8.6 | 1 | < 100 | 96.3 | 8.4
C[C@@H](c1ccc(-c2cccc(OC3CCCC3)n2)cc1)N1CC[C@](CC(C)(C)O)(c2ccccc2)OC1=O [EXAMPLE 28, (S)-3-((S)-1-(4-(6-(cyclopentyloxy)pyridin-2-yl)phenyl)ethyl)-6-(2-hydroxy-2-methylpropyl)-6-phenyl-1,3-oxazinan-2-one] | 186 | 1.4 | < 100 | 89.7 | 129.7
Cc1cc(-c2ccc([C@H](C)N3CC[C@](CCN(C)S(C)(=O)=O)(c4ccccc4)OC3=O)cc2)ccn1 [EXAMPLE 117, N-methyl-N-(2-((S)-3-((S)-1-(4-(2-methylpyridin-4-yl)phenyl)ethyl)-2-oxo-6-phenyl-1,3-oxazinan-6-yl)ethyl)methanesulfonamide] | 12.1 | 1.7 | < 100 | 93.9 | 7.3
Cc1cc(-c2ccc([C@H](C)N3CC[C@](CCO)(c4ccccc4)OC3=O)cc2)ccn1 [EXAMPLE 96, (S)-6-(2-hydroxyethyl)-3-((S)-1-(4-(2-methylpyridin-4-yl)phenyl)ethyl)-6-phenyl-1,3-oxazinan-2-one] | 5.6 | 0.7 | < 100 | 99.8 | 
C[C@@H](c1ccc(-c2ccncc2)cc1)N1CC[C@](CCC(N)=O)(c2ccccc2)OC1=O [EXAMPLE 48, 3-((R)-2-oxo-6-phenyl-3-((S)-1-(4-(pyridin-4-yl)phenyl)ethyl)-1,3-oxazinan-6-yl)propanamide] | 3.9 | 1 | < 100 | 94.3 | 
C[C@@H](c1ccc(-c2ncc(C(=O)NC(C)(C)C)s2)cc1)N1CC[C@](CC(C)(C)C#N)(c2ccccc2)OC1=O [EXAMPLE 24, N-tert-butyl-2-(4-((S)-1-((R)-6-(2-cyano-2-methylpropyl)-2-oxo-6-phenyl-1,3-oxazinan-3-yl)ethyl)phenyl)thiazole-5-carboxamide] | 4.4 | 0.8 | < 100 | 96.9 | 5.2
C[C@@H](c1ccc(-c2ncc(C(=O)NC3CC3)s2)cc1)N1CC[C@](CC(C)(C)C#N)(c2ccccc2)OC1=O [EXAMPLE 21, 2-(4-((S)-1-((R)-6-(2-cyano-2-methylpropyl)-2-oxo-6-phenyl-1,3-oxazinan-3-yl)ethyl)phenyl)-N-cyclopropylthiazole-5-carboxamide] | 3.4 | 0.4 | < 100 | 99.2 | 7.8
C[C@@H](c1ccc(-c2cccnc2)cc1)N1CC[C@](CCC(N)=O)(c2ccc(F)cc2)OC1=O [EXAMPLE 41, 3-((R)-6-(4-fluorophenyl)-2-oxo-3-((S)-1-(4-(pyridin-3-yl)phenyl)ethyl)-1,3-oxazinan-6-yl)propanamide] | 11 | 1.9 | < 100 | 96.8 | 
Cc1nccn1-c1ncc(-c2ccc([C@H](C)N3CC[C@](CC(C)(C)O)(c4ccccc4)OC3=O)cc2)cn1 [EXAMPLE 27, (S)-6-(2-hydroxy-2-methylpropyl)-3-((S)-1-(4-(2-(2-methyl-1H-imidazol-1-yl)pyrimidin-5-yl)phenyl)ethyl)-6-phenyl-1,3-oxazinan-2-one] | 4.7 | 1.2 | < 100 | 96.8 | 3.8
C=CC[C@]1(c2ccc(F)cc2)CCN([C@@H](C)c2ccc(-n3ccc(C(F)(F)F)n3)cc2)C(=O)O1 [EXAMPLE 43, (R)-6-allyl-6-(4-fluorophenyl)-3-((S)-1-(4-(3-(trifluoromethyl)-1H-pyrazol-1-yl)phenyl)ethyl)-1,3-oxazinan-2-one] | 315 | 8.6 | < 100 | 86.2 | 36.5
CC(=O)N(C)CCC[C@]1(c2ccccc2)CCN([C@@H](C)c2ccc(-c3ccnc(C)c3)cc2)C(=O)O1 [EXAMPLE 102, N-methyl-N-(3-((R)-3-((S)-1-(4-(2-methylpyridin-4-yl)phenyl)ethyl)-2-oxo-6-phenyl-1,3-oxazinan-6-yl)propyl)acetamide] | 63 | 3.6 | < 100 | 94.3 | 17.3

Further lines, results first:

IC50 (11β-HSD1 [1]) [nM] | IC50 (11β-HSD1 [2]; [3]) [nM] | IC50 (11β-HSD1 [2]; [4]) [nM] | inhibition at 0.1 µM (11β-HSD1 [2]) [%] | Shift (11β-HSD1 [1]) | SMILES
42.5 | 2.4 | < 100 | 94.5 |  | C[C@@H](c1ccc(-c2ncccc2C#N)cc1)N1CC[C@](CC(C)(C)O)(c2ccccc2)OC1=O [EXAMPLE 165, 2-(4-((S)-1-((S)-6-(2-hydroxy-2-methylpropyl)-2-oxo-6-phenyl-1,3-oxazinan-3-yl)ethyl)phenyl)nicotinonitrile]
13.7 | 2.7 | < 100 | 89.3 | 5.1 | C[C@@H](c1ccc(-c2ncc(C(=O)NC(C)(C)C)s2)cc1)N1CC[C@](CC(C)(C)O)(c2ccccc2)OC1=O [EXAMPLE 23, N-tert-butyl-2-(4-((S)-1-((S)-6-(2-hydroxy-2-methylpropyl)-2-oxo-6-phenyl-1,3-oxazinan-3-yl)ethyl)phenyl)thiazole-5-carboxamide]
9.9 | 1.7 | < 100 | 98.3 |  | C[C@@H](c1ccc(-c2ccccn2)cc1)N1CC[C@](CCC(N)=O)(c2ccccc2)OC1=O [EXAMPLE 88, 3-((R)-2-oxo-6-phenyl-3-((S)-1-(4-(pyridin-2-yl)phenyl)ethyl)-1,3-oxazinan-6-yl)propanamide]
8.2 | 1.9 | < 100 | 98.5 | 4.3 | Cc1cc(-c2ccc([C@H](C)N3CC[C@](CCNS(C)(=O)=O)(c4ccccc4)OC3=O)cc2)ccn1 [EXAMPLE 103, N-(2-((S)-3-((S)-1-(4-(2-methylpyridin-4-yl)phenyl)ethyl)-2-oxo-6-phenyl-1,3-oxazinan-6-yl)ethyl)methanesulfonamide]
13.2 | 3.5 | < 100 | 90.7 | 3.8 | CC[C@@H](c1ccc(-c2cc(C)[n+]([O-])c(C)c2)cc1)N1CC[C@](CC(C)(C)O)(c2ccccc2)OC1=O [EXAMPLE 154, 4-(4-((S)-1-((S)-6-(2-hydroxy-2-methylpropyl)-2-oxo-6-phenyl-1,3-oxazinan-3-yl)propyl)phenyl)-2,6-dimethylpyridine 1-oxide]
21.8 | 0.9 | < 100 | 98.1 | 24.0 | C[C@@H](c1ccc(-c2cccc(N(C)C)n2)cc1)N1CC[C@](CC(C)(C)O)(c2ccccc2)OC1=O [EXAMPLE 30, (S)-3-((S)-1-(4-(6-(dimethylamino)pyridin-2-yl)phenyl)ethyl)-6-(2-hydroxy-2-methylpropyl)-6-phenyl-1,3-oxazinan-2-one]
27.4 | 2.9 | < 100 | 96.3 | 9.6 | C[C@@H](c1ccc(-c2cncc(C#N)n2)cc1)N1CC[C@](CC(C)(C)O)(c2ccc(F)cc2)OC1=O [EXAMPLE 157, 6-(4-((S)-1-((S)-6-(4-fluorophenyl)-6-(2-hydroxy-2-methylpropyl)-2-oxo-1,3-oxazinan-3-yl)ethyl)phenyl)pyrazine-2-carbonitrile]
12.9 | 0.9 | < 100 | 94.3 |  | C[C@@H](c1ccc(-c2ccccn2)cc1)N1CC[C@](CCO)(c2ccccc2)OC1=O [EXAMPLE 85, (S)-6-(2-hydroxyethyl)-6-phenyl-3-((S)-1-(4-(pyridin-2-yl)phenyl)ethyl)-1,3-oxazinan-2-one]
8.1 | 2.6 | < 100 | 96.4 | 3.1 | Cc1nccc(-c2ccc([C@H](C)N3CC[C@](CC(C)(C)C#N)(c4ccc(F)cc4)OC3=O)cc2)n1 [EXAMPLE 142, 3-((R)-6-(4-fluorophenyl)-3-((S)-1-(4-(2-methylpyrimidin-4-yl)phenyl)ethyl)-2-oxo-1,3-oxazinan-6-yl)-2,2-dimethylpropanenitrile]
7.9 | 0.5 | < 100 | 98.5 | 16.6 | Cc1cc(-c2ccc([C@H](C)N3CC[C@](CCCNS(C)(=O)=O)(c4ccccc4)OC3=O)cc2)ccn1 [EXAMPLE 99, N-(3-((R)-3-((S)-1-(4-(2-methylpyridin-4-yl)phenyl)ethyl)-2-oxo-6-phenyl-1,3-oxazinan-6-yl)propyl)methanesulfonamide]
20.8 | 1.6 | < 100 | 91.9 | 13.1 | C[C@@H](c1ccc(-c2ccccn2)cc1)N1CC[C@](CCC(N)=O)(c2ccc(F)cc2)OC1=O [EXAMPLE 60, 3-((R)-6-(4-fluorophenyl)-2-oxo-3-((S)-1-(4-(pyridin-2-yl)phenyl)ethyl)-1,3-oxazinan-6-yl)propanamide]
3.7 | 0.5 | < 100 | 93.9 | 7.7 | C[C@@H](c1ccc(-c2ccc(C#N)cn2)cc1)N1CC[C@](CCCO)(c2ccccc2)OC1=O [EXAMPLE 110, 6-(4-((S)-1-((R)-6-(3-hydroxypropyl)-2-oxo-6-phenyl-1,3-oxazinan-3-yl)ethyl)phenyl)nicotinonitrile]
